Patent publication US5977169A, “Substituted tetronic acids useful for treating HIV and other retroviruses” (priority 1997, dated 1999)
Square brackets hold non-standard residues; d marks the D form. Peptide text beside a SMILES is read from it. * marks the point of attachment. Sta = CC(C)C[C@H](N)[C@@H](O)CC(=O)O; Isovaleryl = CC(C)CC(=O)*

Key:
[1] = system: viral reverse transcriptase; conditions: literature; cited from earlier work
HIV-1 protease = molecular target: T1, HIV-1 protease (Human immunodeficiency virus type 1 group M subtype B, UniProt P04585); assay: In vitro HIV protease inhibitory assay (fluorescently labeled substrate, avidin-polystyrene particles); type: biochemical; conditions: for inhibition at 3.3 µM: HIV-1 dose 3.3 μM; for inhibition at 10 µM: HIV-1 dose 10.0 μM; for inhibition at 30 µM: HIV-1 dose 30.0 μM
T1 construct: The protease (or proteinase) enzyme, consisting of only 99 amino acids
Outline: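 Biotinylated, FITC-labelled peptide substrate cleaved by HIV-1 protease for 1 h at room temperature in the dark, in 0.1 M sodium acetate pH 5.5 with 1.0 M NaCl and 0.05% NP-40. Product separated from substrate with avidin-polystyrene beads and filtration; fluorescence read as percent inhibition at stated compound concentrations.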

HIV-1IIIB = assay: Inhibition of retroviral replication in human T-cell lines, e.g., MT4 and H9, infected with HIV-1IIIB; type: cell-based
HIV-I protease = conditions: literature; cited from earlier work

| SMILES | inhibition at 3.3 µM (HIV-1 protease) | inhibition at 10 µM (HIV-1 protease) | inhibition at 30 µM (HIV-1 protease) | inhibition of viral reverse transcriptase [1] | inhibition of retroviral replication (HIV-1IIIB) | inhibition of HIV-I protease (HIV-I protease) |
| --- | --- | --- | --- | --- | --- | --- |
| Cc1cn([C@H]2C[C@H](N=[N+]=[N-])[C@@H](CO)O2)c(=O)[nH]c1=O [AZT, 3-azido-3-deoxythymidine] | – | – | – | known inhibitor of viral reverse transcriptase | – | – |
| CCCC1(CCC)OC(=O)C(C(c2cccc(NS(=O)(=O)c3ccc(C#N)cc3)c2)C2CC2)=C1O (centres unmarked) [IX-14] | 113% | 111% | 119% | – | found to inhibit retroviral replication | – |
| CCCC1(CCC)OC(=O)C(C(c2cccc(NS(=O)(=O)c3cn(C)cn3)c2)C2CC2)=C1O (centres unmarked) [IX-17] | 108% | 111% | 108% | – | found to inhibit retroviral replication | – |
| CCCC1(CCC)OC(=O)C(C(c2cccc(NS(=O)(=O)c3cn(C)cn3)c2)C(C)C)=C1O (centres unmarked) [IX-24, 1H-Imidazole-4-sulfonamide, N-(3-(1-(4-hydroxy-2-oxo-5,5-dipropyl-2,5-dihydro-furan-3-yl)-2-methyl-propyl)-phenyl)-1-methyl-] | 102% | 101% | 102% | – | found to inhibit retroviral replication | – |
| CC(C)CC(=O)N[C@H](C(=O)N[C@H](C(=O)N[C@@H](CC(C)C)[C@@H](O)CC(=O)N[C@@H](C)C(=O)N[C@@H](CC(C)C)[C@@H](O)CC(=O)O)C(C)C)C(C)C [Pepstatin A] (Isovaleryl-VV[Sta]A[Sta]-OH) | – | – | – | – | – | disclosed as an inhibitor of HIV-I protease |

The next lines start with results.

| inhibition at 3.3 µM (HIV-1 protease) | inhibition at 10 µM (HIV-1 protease) | inhibition at 30 µM (HIV-1 protease) | SMILES | inhibition of viral reverse transcriptase [1] | inhibition of retroviral replication (HIV-1IIIB) | inhibition of HIV-I protease (HIV-I protease) |
| --- | --- | --- | --- | --- | --- | --- |
| 85.9% | 99.2% | 113% | CCC/C=C1\OC(=O)C(C(c2ccccc2)C2CC2)=C1O (centres unmarked) [JX-4, 5-Butylidene-3-(cyclopropyl-phenyl-methyl)-4-hydroxy-5H-furan-2-one] | – | – | – |
| 78.8% | 89.9% | 100% | CC(C)(C)OC(=O)N1CCC2(CC1)OC(=O)C(C(c1ccccc1)C1CC1)=C2O (centres unmarked) [OX-1, 3-(Cyclopropyl-phenyl-methyl)-4-hydroxy-2-oXo-1-oca-8-aza-spiro[4.5]dec-3-ene-8-carboxylic acid tert-butyl ester] | – | – | – |
| 14.9% | 34.1% | 59% | O=C1OC2(CCNCC2)C(O)=C1C(c1ccccc1)C1CC1 (centres unmarked) [OX-2, 3-(Cyclopropyl-phenyl-methy1)-4-hydroxy--1-oXa-8-aza-spiro[4.5]dec-3-en-2-one] | – | – | – |
